Measured values reported in the Kinase Knowledgebase extract (Sharma et al. 2016).

Target: EGFR (UniProt P00533)
Sequence (P00533 whole entry, looked up): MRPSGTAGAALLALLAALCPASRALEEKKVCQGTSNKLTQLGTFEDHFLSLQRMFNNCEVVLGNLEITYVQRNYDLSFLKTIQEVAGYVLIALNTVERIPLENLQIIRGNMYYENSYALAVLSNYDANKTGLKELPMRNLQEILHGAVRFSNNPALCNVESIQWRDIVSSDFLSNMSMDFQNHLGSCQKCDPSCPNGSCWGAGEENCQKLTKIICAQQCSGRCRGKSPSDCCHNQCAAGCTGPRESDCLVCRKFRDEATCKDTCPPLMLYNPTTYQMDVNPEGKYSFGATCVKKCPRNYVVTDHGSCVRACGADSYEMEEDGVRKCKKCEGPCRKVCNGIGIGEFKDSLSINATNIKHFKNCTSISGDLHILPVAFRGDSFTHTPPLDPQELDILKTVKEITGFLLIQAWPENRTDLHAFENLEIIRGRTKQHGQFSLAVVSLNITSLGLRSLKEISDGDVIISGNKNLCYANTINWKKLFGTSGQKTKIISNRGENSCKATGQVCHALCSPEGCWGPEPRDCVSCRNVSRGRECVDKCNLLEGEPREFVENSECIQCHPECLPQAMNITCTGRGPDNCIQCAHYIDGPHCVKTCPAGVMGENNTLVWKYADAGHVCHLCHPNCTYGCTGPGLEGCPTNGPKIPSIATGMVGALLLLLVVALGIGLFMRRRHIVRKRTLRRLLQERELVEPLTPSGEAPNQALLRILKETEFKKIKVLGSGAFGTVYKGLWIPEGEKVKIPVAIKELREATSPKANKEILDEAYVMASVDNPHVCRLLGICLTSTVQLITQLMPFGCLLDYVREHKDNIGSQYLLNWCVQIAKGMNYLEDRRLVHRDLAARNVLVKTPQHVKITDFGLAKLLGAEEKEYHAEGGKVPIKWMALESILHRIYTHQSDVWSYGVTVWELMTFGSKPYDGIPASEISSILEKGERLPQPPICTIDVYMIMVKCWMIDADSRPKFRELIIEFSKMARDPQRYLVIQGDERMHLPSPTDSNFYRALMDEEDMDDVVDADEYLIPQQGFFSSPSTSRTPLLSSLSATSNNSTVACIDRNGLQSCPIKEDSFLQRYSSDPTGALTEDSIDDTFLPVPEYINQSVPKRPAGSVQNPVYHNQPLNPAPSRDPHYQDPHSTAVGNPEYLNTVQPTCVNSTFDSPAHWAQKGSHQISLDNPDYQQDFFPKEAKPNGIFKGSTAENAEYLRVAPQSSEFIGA

Compound | inhibition
NCCC(=O)NCCc1cc(O)c(O)c(SC[C@H](NC(=O)CC[C@H](N)C(=O)O)C(=O)NCC(=O)O)c1 | 4.9
NCCc1cc(O)c(O)c(SC[C@H](NC(=O)CC[C@H](N)C(=O)O)C(=O)NCC(=O)O)c1 | 1
N[C@@H](CSc1cc(C[C@H](N)C(=O)O)cc(O)c1O)C(=O)O | 2.9
N[C@H](Cc1cc(O)c(O)c(SC[C@H](N)C(=O)O)c1)C(=O)O | 0
N[C@@H](CCC(=O)N[C@@H](CSc1cc(C[C@H](N)C(=O)O)cc(O)c1O)C(=O)NCC(=O)O)C(=O)O | 4.4
NCCc1cc(SC[C@H](NC(=O)CC[C@H](N)C(=O)O)C(=O)NCC(=O)O)c(O)c(O)c1SC[C@@H](NC(=O)CC[C@@H](N)C(=O)O)C(=O)NCC(=O)O | 7.6
NCCC(=O)N[C@H](Cc1cc(O)c(O)c(SC[C@H](NC(=O)CC[C@H](N)C(=O)O)C(=O)NCC(=O)O)c1)C(=O)O | 8.2
NCCC(=O)N[C@@H](Cc1cc(O)c(O)c(SC[C@H](NC(=O)CC[C@H](N)C(=O)O)C(=O)NCC(=O)O)c1)C(=O)O | 2.2
N[C@H](Cc1cc(O)c(O)c(SC[C@H](NC(=O)CC[C@H](N)C(=O)O)C(=O)NCC(=O)O)c1)C(=O)O | 0
C[C@@](Cc1cc(O)c(O)c(SC[C@H](NC(=O)CC[C@H](N)C(=O)O)C(=O)NCC(=O)O)c1)(NC(=O)CCN)C(=O)O | 5.2
